Experimental data reported in patent US8519149B2, “Tricyclic compounds as mPGES-1 inhibitors” (Glenmark Pharmaceuticals S.A., priority 2010, dated 2013).
pIC50: −log10 of the molar value.

Biological target: T1, Recombinant human mPGES-1 (Homo sapiens, UniProt O14684)
T1 sequence (O14684 1-152): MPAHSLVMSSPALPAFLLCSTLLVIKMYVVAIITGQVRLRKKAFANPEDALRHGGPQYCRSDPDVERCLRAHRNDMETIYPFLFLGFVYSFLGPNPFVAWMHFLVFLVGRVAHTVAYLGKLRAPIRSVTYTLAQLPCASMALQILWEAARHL
Experiment: In-vitro mPGES-1 enzyme inhibition assay (PGE2 formation from PGH2, HTRF detection)
Type: biochemical
Conditions: for inhibition at 1 µM: read-out: Percentage inhibition at 1 μM; for inhibition at 10 µM: 10 μM test compound, read-out: Percentage inhibition at 10 μM; for pIC50: class symbols, selected examples
Description: In-Vitro Protocol for Screening of mPGES-1 Inhibitors: mPGES-1 (microsomal prostaglandin E synthase-1) is a microsomal enzyme that converts endoperoxide substrate PGH2 (prostaglandin H2) to product PGE2 (prostaglandin E2) by isomerization in the presence of reduced glutathione (GSH). mPGES-1 inhibitors were screened by assessing their ability to inhibit formation of PGE2 from PGH2 in presence of mPGES-1 using anti-PGE2 antibody based detection method. […] Assay was set up using crude microsomal fractions at protein concentration of 40-60 μg/mL. […] Final concentration of DMSO in reaction was 0.5% (v/v). Negative controls comprised of all assay reagents except the enzyme. Positive controls comprised of enzyme reaction in the absence of any inhibitor. […] Reaction was stopped by addition of Stannous chloride (11 mg/ml) and PGE2 levels were measured ([…] et al. […] Inhibition of mPGES-1 enzyme activity was measured using percent of reaction occurring in the positive control. Concentration response curves were plotted using percent inhibition of maximum enzyme reaction. IC50 value was calculated from concentration response curve by nonlinear regression analysis using GraphPad PRISM software.

[1] = 1 μM test compound, recombinant human mPGES-1 microsomal fraction
[2] = recombinant human mPGES-1 microsomal fraction

| SMILES | inhibition at 1 µM [1] [%] | inhibition at 10 µM [2] [%] | pIC50 | Percentage inhibition at 1 μM (1 μM test compound, recombinant human mPGES-1 microsomal fraction, 1 µM) [%] |
| --- | --- | --- | --- | --- |
| CC1(C)Cc2c(c(C(=O)Nc3ccc(F)cc3C#N)cc3nc(Nc4c(F)cccc4Cl)[nH]c23)O1 [Example-105, 2-[(2-Chloro-6-fluorophenyl)amino]-N-(2-cyano-4-fluorophenyl)-7,7-dimethyl-7,8-dihydro-1H-furo[3,2-e]benzimidazole-5-carboxamide] | 91.2 | 95.5 | < 7.00 |  |
| CC1(C)Cc2c(c(C(=O)Nc3ccccc3C(F)(F)F)cc3nc(Nc4ccccc4Cl)[nH]c23)O1 [Example-79, 2-[(2-Chlorophenyl)amino]-7,7-dimethyl-N-[2-(trifluoromethyl)phenyl]-7,8-dihydro-1H-furo[3,2-e]benzimidazole-5-carboxamide] | 97.4 | 91.9 | 7.00 to 7.30 |  |
| Cn1c(Nc2c(Cl)cncc2Cl)nc2cc(C(=O)Nc3cccc(C(F)(F)F)c3)c3c(c21)CC(C)(C)O3 [Example-214, 2-((3,5-Dichloropyridin-4-yl)amino)-1,7,7-trimethyl-N-(3-(trifluoromethyl)phenyl)-7,8-dihydro-1H-benzofuro[4,5-d]imidazole-5-carboxamide] | 98.4 | 96.5 |  |  |
| CN(C)CCNC(=O)c1cc2nc(Nc3c(Cl)cccc3Cl)[nH]c2c2c1OC(C)(C)C2 [Example-61, 2-[(2,6-Dichlorophenyl)amino]-N-[2-(dimethylamino)ethyl]-7,7-dimethyl-7,8-dihydro-1H-furo[3,2-e]benzimidazole-5-carboxamide] | 6.5 | 69.8 |  |  |
| CC1(C)Cc2c(c(C(=O)NC3(c4ccccc4C(F)(F)F)CC3)cc3nc(Nc4c(F)cccc4Cl)[nH]c23)O1 [Example-118, 2-[(2-Chloro-6-fluorophenyl)amino]-7,7-dimethyl-N-{1-[2-(trifluoromethyl)phenyl]cyclopropyl}-7,8-dihydro-1H-furo[3,2-e]benzimidazole-5-carboxamide] | 97 | 98.7 | < 7.00 |  |
| Cc1cc2c(o1)c(C(=O)NCc1ccccc1C(F)(F)F)cc1nc(Nc3c(Cl)cccc3Cl)[nH]c12 [Example-85, 2-[(2,6-Dichlorophenyl)amino]-7-methyl-N-[2-(trifluoromethyl)benzyl]-1H-furo[3,2-e]benzimidazole-5-carboxamide] | 93.3 | 95.4 | 7.00 to 7.30 |  |
| Cc1cc2c(o1)c(C(=O)NCCC(C)C)cc1nc(Nc3c(Cl)cncc3Cl)[nH]c12 [Example-50, 2-[(3,5-Dichloropyridin-4-yl)amino]-7-methyl-N-(3-methylbutyl)-1H-furo[3,2-e]benzimidazole-5-carboxamide] | 89.2 | 99.3 |  |  |
| CC1(C)Cc2c(c(C(=O)Nc3ccc(C#N)cc3)cc3nc(Nc4c(Cl)cccc4Cl)[nH]c23)O1 [Example-59, N-(4-Cyanophenyl)-2-[(2,6-dichlorophenyl)amino]-7,7-dimethyl-7,8-dihydro-1H-furo[3,2-e]benzimidazole-5-carboxamide] | 96.8 | 98.1 | > 7.30 |  |
| CC1(C)Cc2c(c(C(=O)Nc3ccc(F)c(C(F)(F)F)c3)cc3nc(Nc4c(Cl)cncc4Cl)[nH]c23)O1 [Example-196, 2-((3,5-Dichloropyridin-4-yl)amino)-N-(4-fluoro-3-(trifluoromethyl)phenyl)-7,7-dimethyl-7,8-dihydro-1H-benzofuro[4,5-d]imidazole-5-carboxamide] | 100 | 98.8 |  |  |

More lines, now with the values ahead:

| inhibition at 1 µM [1] [%] | inhibition at 10 µM [2] [%] | pIC50 | Percentage inhibition at 1 μM (1 μM test compound, recombinant human mPGES-1 microsomal fraction, 1 µM) [%] | SMILES |
| --- | --- | --- | --- | --- |
| 99.4 | 98.7 | > 7.30 |  | Cc1cc(C(F)(F)F)ccc1NC(=O)c1cc2nc(Nc3c(F)cccc3Cl)[nH]c2c2c1OC(C)(C)C2 [Example-113, 2-[(2-Chloro-6-fluorophenyl)amino]-7,7-dimethyl-N-[2-methyl-4-(trifluoromethyl)phenyl]-7,8-dihydro-1H-furo[3,2-e]benzimidazole-5-carboxamide] |
| 100 | 100 | > 7.30 | 97.45 | CC1(C)Cc2c(c(C(=O)Nc3ccc(Br)cc3)cc3nc(Nc4c(Cl)cccc4Cl)[nH]c23)O1 [Example-11, N-(4-Bromophenyl)-2-[(2,6-dichlorophenyl)amino]-7,7-dimethyl-7,8-dihydro-1H-furo[3,2-e]benzimidazole-5-carboxamide] |
| 99.8 | 100 | > 7.30 |  | Cc1ccc(NC(=O)c2cc3nc(Nc4c(F)cccc4Cl)n(C)c3c3c2OC(C)(C)C3)c(F)c1 [Example-154, 2-((2-Chloro-6-fluorophenyl)amino)-N-(2-fluoro-4-methylphenyl)-1,7,7-trimethyl-7,8-dihydro-1H-benzofuro[4,5-d]imidazole-5-carboxamide] |
| 96 | 98.1 | > 7.30 |  | CC1(C)Cc2c(c(C(=O)Nc3ccc(C(F)(F)F)cn3)cc3nc(Nc4c(F)cccc4Cl)[nH]c23)O1 [Example-122, 2-[(2-Chloro-6-fluorophenyl)amino]-7,7-dimethyl-N-[5-(trifluoromethyl)pyridin-2-yl]-7,8-dihydro-1H-furo[3,2-e]benzimidazole-5-carboxamide] |
| 98.7 | 99.7 | > 7.30 |  | Cc1ccc(NC(=O)c2cc3nc(Nc4c(Cl)cncc4Cl)[nH]c3c3c2OC(C)(C)C3)c(Cl)c1 [Example-198, N-(2-Chloro-4-methylphenyl)-2-((3,5-dichloropyridin-4-yl)amino)-7,7-dimethyl-7,8-dihydro-1H-benzofuro[4,5-d]imidazole-5-carboxamide] |
| 99.2 | 95.7 | > 7.30 |  | CCC(C)(C)NC(=O)c1cc2nc(Nc3c(Cl)cccc3Cl)[nH]c2c2c1OC(C)(C)C2 [Example-41, 2-[(2,6-Dichlorophenyl)amino]-7,7-dimethyl-N-(2-methylbutan-2-yl)-7,8-dihydro-1H-furo[3,2-e]benzimidazole-5-carboxamide] |
| 94.7 | 99 | > 7.30 |  | CC1(C)Cc2c(c(C(=O)NC3(c4cccc(C(F)(F)F)c4)CC3)cc3nc(Nc4c(F)cccc4Cl)[nH]c23)O1 [Example-127, 2-((2-Chloro-6-fluorophenyl)amino)-7,7-dimethyl-N-(1-(3-(trifluoromethyl)phenyl)cyclopropyl)-7,8-dihydro-1H-benzofuro[4,5-d]imidazole-5-carboxamide] |
| 97 | 99.6 | > 7.30 |  | CC1(C)Cc2c(c(C(=O)NCc3ccccc3C(F)(F)F)cc3nc(Nc4c(Cl)cncc4Cl)[nH]c23)O1 [Example-2, 2-[(3,5-Dichloropyridin-4-yl)amino]-7,7-dimethyl-N-[2-(trifluoromethyl)benzyl]-7,8-dihydro-1H-furo[3,2-e]benzimidazole-5-carboxamide] |
| 97.1 | 97.1 | > 7.30 |  | CC1(C)Cc2c(c(C(=O)Nc3ccc(C(F)(F)F)cc3)cc3nc(Nc4ccccc4Cl)[nH]c23)O1 [Example-89, 2-[(2-Chlorophenyl)amino]-7,7-dimethyl-N-[4-(trifluoromethyl)phenyl]-7,8-dihydro-1H-furo[3,2-e]benzimidazole-5-carboxamide] |
